{"source": "patent US7179821B2", "about": "“Method of treating of demyelinating diseases or conditions” (Aventis Pharmaceuticals Inc., priority 2001, dated 2007)", "system": "moderate chronic (35 days post-injury) spinal cord crush", "assay": "Long standing moderate spinal cord crush (35 days), OFT score", "assay_type": "in vivo, rat", "text": "A tabular representation of the results from both chronic spinal cord injury studies (drugs first administered 25 days after a mild spinal cord crush and 35 days after a moderate spinal cord crush) are shown in Table 5.\nOne hundred fifty adult female Wistar rats, 250–300 g weight, obtained from Charles River were housed in the McMaster University Health Sciences Centre (HSC) Central Animal Facilities (CAF) for at least one week. During that time they were exposed to the performance tests described below, to ensure they were familiar with them. Rats were handled daily for 2 weeks prior to surgery.\nRats were anesthetized using isoflurane (3–5%): O2 (1 L/min) in an appropriately equipped surgical suite in the CAF. Temgesic (0.03 mg/kg body weight, subcutaneously (SQ)) was administered prior to surgery for pain relief. Spinal cords were crushed (compressed) with a 3.5 mm wide modified coverslip forceps (Blight 1991, procedure revised by Rathbone laboratory). The forceps were closed to 1.4 mm for 15 sec, which produced injury level equivalent to the mid-level (moderate) outcome on the Gruner scale (1996). The compression injury was otherwise performed according to the procedure described by Blight (1991).\nChanges in locomotor behaviour and segmental reflexes were assessed up to 5 weeks post injury. Animals were tested in an open field walking task, hind limb placement and foot orientation. The animals were evaluated on days 2, 7, 14, 21, 28 and 35 after surgery. By 35 days after surgery, almost no further spontaneous recovery occurs. Therefore treatment began on day 35.\nHP184 was dissolved in sterilized (autoclaved) deionized reverse-osmosis water acidified with glacial acetic acid (0.1 ml acid per 10 ml of water). 4-AP (Sigma, molecular weight 94.12; Jankowska E. et al., 1982; Gruner et al., 1999) was dissolved in physiological saline (0.6 mg/kg b.w.) and was administered by i.p. injection. One group of rats (vehicle control-1) received by oral gavage vehicle. Behaviourial testing was done immediately prior to receiving the gavage and at 3 hours thereafter. Then, the rats were scarified on day 35. All the other rats received either HP184 by oral gavage (0.3, 1, or 3 mg/kg bw depending on the group) or 4-AP (0.6 mg/kg, i.p.) or vehicle (vehicle control-2) once a day on the 35 to 42 days after surgery. On these days behaviourial tests were done immediately prior to receiving the gavage at 3 and 24 hours thereafter. Then, the rats were perfused on day 43 after the last behaviourial testing.\nStatistical analyses were performed on a Macintosh computer using GB-Stat ppc 6.5.2. The behavioral scores were analyzed by the Kruskal-Wallis nonparametric analysis of variance (ANOVA). Post hoc comparisons were made using Mann-Whitney U tests.", "note": "Marks after values point to notes of the source that are not given here."}
{"smiles": "CCCN(c1ccncc1F)n1cc(C)c2ccccc21", "note": "[HP184, N-(3-fluoro-4-pyridinyl)-N-propyl-3-methyl-1H-indole-1-amine]", "values": [{"measurement": "recovery of locomotor function, comparison of the doses", "setting": "3 mg/kg po vs 0.3 and 1 mg/kg, days 35–42", "value": "produced the best recovery of locomotor function"}, {"measurement": "% possible improvement, moderate", "setting": "3 mpk po", "value": 24.8, "unit": "%*"}, {"measurement": "Delta of OFT score, Day 35 to Day 39 (moderate)", "setting": "3 mpk po", "value": ".274"}, {"measurement": "OFT score Day 39 (moderate) 3 hrs after last dose", "setting": "3 mpk po daily", "value": "4.17 ± .058"}, {"measurement": "open field locomotor ability (mean OFT scores) vs vehicle, FIGS. 6a and 6b", "setting": "HP184 0.3, 1 or 3 mg/kg po or 4-AP 0.6 mg/kg ip once a day, days 35–42, treatment effect p<0.01", "value": "significantly different from that of control animals receiving vehicle"}, {"measurement": "OFT score Day 35 (moderate) prior", "setting": "group 3 mpk po, baseline before dosing", "value": "3.89 ± .054"}]}
